{"source": "patent US20100305124A1", "about": "“Acylated Aminopyridine and Aminopyridazine Insecticides” (BAYER CROPSCIENCE AG, priority 2009, published 2010)", "data": [{"system": "common spider mite (Tetranychus urticae)", "test": "Tetranychus test (TETRUR), sprayed French bean plants", "type": "in vivo", "conditions": "application rate of 500 ppm; spray on French bean plants", "description": "Tetranychus Test (TETRUR) Solvent: 3 parts by weight of dimethylformamide Emulsifier: 1 part by weight of polyoxyethylenealkyl phenyl ether An appropriate preparation of active ingredient is prepared by mixing 1 part by weight of active ingredient with the stated amount of solvent and emulsifier and diluting the concentrate with water to the desired concentration. French bean (Phaseolus vulgaris) plants are infested with a mixed population of the common spider mite (Tetranychus urticae) and sprayed with the preparation of active ingredient at the desired concentration. After the desired time, the effect in % is determined: here, 100% means that all of the spider mites have been killed. Conversely, 0% means that no spider mites have been killed.", "units": {"effect in % (spider mites killed)": "%"}, "values": [{"molecule": "CN(C(=O)c1ccc(Oc2ccc(C(C)(C)C)cc2)nc1)c1cccnc1", "note": "[I-127]", "effect in % (spider mites killed)": "≥ 80"}]}, {"system": "green peach aphid (Myzus persicae)", "test": "Myzus test (MYZUPE spray treatment), Chinese cabbage leaf discs", "type": "in vivo", "conditions": "foliar, application rate of 20 g/ha, spray on Chinese cabbage discs, read-out: effect in % (aphids killed)", "description": "(§1) Myzus Test (MYZUPE Spray Treatment)\n(§2) Solvents: 78 parts by weight of acetone • • 1.5 parts by weight of dimethylformamide Emulsifier: 0.5 part by weight of alkylaryl polyglycol ether\n(§3) An appropriate preparation of active ingredient is prepared by mixing 1 part by weight of active ingredient with the stated amounts of solvents and emulsifier and diluting the concentrate with emulsifier-containing water to the desired concentration.\n(§4) Discs of Chinese cabbage (Brassica pekinensis) infested with all stages of the green peach aphid (Myzus persicae) are sprayed with a preparation of active ingredient at the desired concentration.\n(§5) After the desired time, the effect in % is determined. Here, 100% means that all of the aphids have been killed; 0% means that no aphids have been killed.", "units": {"pest or weed control at 20 g/ha": "%"}, "values": [{"molecule": "Cc1ncccc1-n1ncc(C(=O)Nc2cccnc2)c1C", "note": "[I-2]", "pest or weed control at 20 g/ha": "≥ 80"}]}, {"system": "green peach aphid (Myzus persicae)", "test": "Myzus test (MYZUPE spray treatment), Chinese cabbage leaf discs", "type": "in vivo", "conditions": "foliar, application rate of 500 g/ha, spray on Chinese cabbage discs, read-out: effect in % (aphids killed)", "description": "as §1, §2, §3, §4, §5", "units": {"pest or weed control at 500 g/ha": "%"}, "values": [{"molecule": "CN(C(=O)c1ccc(Cl)c(NC(=O)C2CC2)c1)c1cccnc1", "note": "[I-302]", "pest or weed control at 500 g/ha": "≥ 80"}, {"molecule": "COc1ccc(C(=O)N(C)c2cccnc2)cc1NS(=O)(=O)C(C)C", "note": "[I-334]", "pest or weed control at 500 g/ha": "≥ 80"}, {"molecule": "Cn1cc(C(=O)Nc2ccnnc2)c(C(F)(F)F)n1", "note": "[I-281]", "pest or weed control at 500 g/ha": "≥ 80"}, {"molecule": "CN(C(=O)c1cccc(C(F)(F)F)c1)c1cccnc1", "note": "[I-262]", "pest or weed control at 500 g/ha": "≥ 80"}, {"molecule": "CN(C(=O)c1cnn(CC(F)(F)F)c1C(F)F)c1cccnc1", "note": "[I-269]", "pest or weed control at 500 g/ha": "≥ 80"}, {"molecule": "COc1ccc(C(=O)N(C)c2cccnc2)cc1OC", "note": "[I-260]", "pest or weed control at 500 g/ha": "≥ 80"}, {"molecule": "CCCC(=O)Nc1cc(C(=O)N(C)c2cccnc2)ccc1OC", "note": "[I-336]", "pest or weed control at 500 g/ha": "≥ 80"}, {"molecule": "CCC(=O)Nc1cc(C(=O)N(C)c2cccnc2)ccc1C", "note": "[I-310]", "pest or weed control at 500 g/ha": "≥ 80"}, {"molecule": "CN(C(=O)c1ccc(F)c(C(F)(F)F)c1)c1cccnc1", "note": "[I-259]", "pest or weed control at 500 g/ha": "≥ 80"}, {"molecule": "CN(C(=O)c1cnn(-c2ccccc2Cl)c1C(F)(F)F)c1cccnc1", "note": "[I-271]", "pest or weed control at 500 g/ha": "≥ 80"}, {"molecule": "CN(C(=O)c1ccc(OC(F)(F)F)cc1)c1cccnc1", "note": "[I-266]", "pest or weed control at 500 g/ha": "≥ 80"}, {"molecule": "COCc1c(C(=O)N(C)c2cccnc2)cnn1CC(F)(F)F", "note": "[I-270]", "pest or weed control at 500 g/ha": "≥ 80"}, {"molecule": "CC(C)c1nn(C)cc1C(=O)N(C)c1ccnnc1", "note": "[I-323]", "pest or weed control at 500 g/ha": "≥ 80"}, {"molecule": "CN(C(=O)c1ccc2c(c1)OC(F)(F)O2)c1cccnc1", "note": "[I-261]", "pest or weed control at 500 g/ha": "≥ 80"}, {"molecule": "Cc1ccc(C(=O)N(C)c2cccnc2)cc1NC(=O)C1CCCC1", "note": "[I-312]", "pest or weed control at 500 g/ha": "≥ 80"}, {"molecule": "CC(F)c1nn(C)cc1C(=O)N(C)c1ccnnc1", "note": "(centres unmarked) [I-321]", "pest or weed control at 500 g/ha": "≥ 80"}, {"molecule": "COc1ccc(C(=O)Nc2cccnc2)cc1NC(=O)C1CC1", "note": "[I-293]", "pest or weed control at 500 g/ha": "≥ 80"}, {"molecule": "CN(C(=O)c1cn(C)nc1C(F)(F)F)c1ccnnc1", "note": "[I-322]", "pest or weed control at 500 g/ha": "≥ 80"}, {"molecule": "CN(C(=O)c1cnn(-c2ncccn2)c1C(F)F)c1cccnc1", "note": "[I-274]", "pest or weed control at 500 g/ha": "≥ 80"}, {"molecule": "O=C(Nc1cccnc1)c1cnn(CC(F)(F)F)c1C(F)(F)F", "note": "[I-282]", "pest or weed control at 500 g/ha": "≥ 80"}, {"molecule": "COC(C)c1c(C(=O)N(C)c2cccnc2)cnn1CC(F)(F)F", "note": "(centres unmarked) [I-275]", "pest or weed control at 500 g/ha": "≥ 80"}, {"molecule": "COc1ccc(C(=O)N(C)c2cccnc2)cc1NC(=O)OC(C)C", "note": "[I-337]", "pest or weed control at 500 g/ha": "≥ 80"}, {"molecule": "COC(C)c1c(C(=O)N(C)c2cccnc2)cnn1-c1ncccn1", "note": "(centres unmarked) [I-276]", "pest or weed control at 500 g/ha": "≥ 80"}]}, {"system": "green peach aphid (Myzus persicae)", "test": "Myzus test (MYZUPE spray treatment), Chinese cabbage leaf discs", "type": "in vivo", "conditions": "foliar, application rate of 500 ppm, spray on Chinese cabbage discs, read-out: effect in % (aphids killed)", "description": "as §1, §2, §3, §4, §5", "units": {"pest or weed control at 500 ppm": "%"}, "values": [{"molecule": "CC(C)C(=O)Nc1cccc(C(=O)N(C)c2cccnc2)c1", "note": "[I-284]", "pest or weed control at 500 ppm": "≥ 80"}]}]}
